In US20180369195A1, “COMBINATION THERAPY FOR TREATMENT OF MELANOMA” (The Regents of the University of California, priority 2015, published 2018):

How the values were obtained:
β-catenin = experiment: Western blot of β-catenin; type: cell-based, human; conditions: G-361, DM-738, SK-MEL-2 cells, 20 μM 1-benzyl I3C, 24, 48 and 72 hours
From the text: The western blots employed the following primary antibodies: mouse anti-MITF-M (Thermo-scientific), mouse anti-HSP 90 (BD Biosciences), mouse anti-CDK2, rabbit anti-CDK4, rabbit anti-CDK-6, mouse anti-rabbit BRAF, goat anti-LEF-1, rabbit anti-AXIN, mouse anti-BCL2, (Santa Cruz), rabbit anti-P21, mouse anti-Cyclin D1, rabbit anti-MEK-p, rabbit anti-MEK1/2, rabbit anti-GSK3β rabbit anti-LRP6, rabbit anti-LRP6-phospho (Cell signaling), mouse anti-β-catenin (Invitrogen).

normal melanocytes = experiment: Flow cytometry analysis of DNA content, normal melanocytes; type: cell-based; conditions: varying doses of 1-benzyl I3C, 48 hours
CDK 2, 4, 6 = experiment: Western blot of key cell cycle regulators; type: cell-based, human; conditions: melanoma cell lines, 1-benzyl I3C, 24, 48, 72 hours
Description: (§1) Western Blot analyses of samples electrophoretically fractionated on 12% acrylamide gels were carried out as previously described (Wagle et al., J. Clin. Oncol. 2011. 29(22):3085-3096; Nguyen et al., Chem. Biol. Interact. 2010. 186(3):255-266). Enhanced chemiluminescence (ECL) Lightening reagents were used to visualize the primary antibody bound protein bands in nitrocellulose membranes and the results captured on ECL Autoradiography Film (GE Healthcare, Piscataway, N.J.). The western blots employed the following primary antibodies: mouse anti-MITF-M (Thermo-scientific), mouse anti-HSP 90 (BD Biosciences), mouse anti-CDK2, rabbit anti-CDK4, rabbit anti-CDK-6, mouse anti-rabbit BRAF, goat anti-LEF-1, rabbit anti-AXIN, mouse anti-BCL2, (Santa Cruz), rabbit anti-P21, mouse anti-Cyclin D1, rabbit anti-MEK-p, rabbit anti-MEK1/2, rabbit anti-GSK3β rabbit anti-LRP6, rabbit anti-LRP6-phospho (Cell signaling), mouse anti-β-catenin (Invitrogen).

[1] = test system: multiple melanoma cell lines; experiment: Flow cytometry analysis of DNA content, multiple melanoma cell lines; type: cell-based, human
Description: (§2) Melanoma cells were treated with the indicated concentrations of 1-benzyl I3C in triplicates every 24 hours and harvested at the end of 24, 48 or 72 hours for cell cycle analysis. The DNA content of propidium iodide stained nuclei from harvested cells were determined by flow cytometry. Briefly, cells were hypotonically lysed in […] of DNA staining solution (0.5 mg/mL propidium iodide, 0.1% sodium citrate, and 0.05% Triton-X 100). Emitted fluorescence from the nuclear of wavelengths more than 585 nm was measured with a Coulter Elite instrument with laser output adjusted to deliver 15 mW at 488 nm. Ten thousand nuclei were analyzed from each sample at a rate of 300-500 nuclei/second. The percentage of cells within the G1, S, and G2/M phases of the cell cycle were determined by analysis with the Multicycle computer program provided by Phoenix Flow Systems in the Cancer Research Laboratory Microchemical Facility of the University of California, Berkeley.

CDK4 = experiment: Western blot of CDK4; type: cell-based, human; conditions: G-361 cells, 48 hours; 200 μM I3C, 10 μM Vemurafenib or 10 μM U0126
Description: as §1

phosphorylated Erk/MAPK = experiment: Western blot of phosphorylated Erk/MAPK; type: cell-based, human; conditions: 200 μM I3C
Description: Western Blot analyses of samples electrophoretically fractionated on 12% acrylamide gels were carried out as previously described (Wagle et al., J. Clin. Oncol. 2011. 29(22):3085-3096; Nguyen et al., Chem. Biol. Interact. 2010. 186(3):255-266). […] The western blots employed the following primary antibodies: mouse anti-MITF-M (Thermo-scientific), mouse anti-HSP 90 (BD Biosciences), mouse anti-CDK2, rabbit anti-CDK4, rabbit anti-CDK-6, mouse anti-rabbit BRAF, goat anti-LEF-1, rabbit anti-AXIN, mouse anti-BCL2, (Santa Cruz), rabbit anti-P21, mouse anti-Cyclin D1, rabbit anti-MEK-p, rabbit anti-MEK1/2, rabbit anti-GSK3β rabbit anti-LRP6, rabbit anti-LRP6-phospho (Cell signaling), mouse anti-β-catenin (Invitrogen).

BRAF-V600E = molecular target: T1, BRAF-V600E (Homo sapiens, UniProt P15056, V600E); experiment: BRAF kinase assay on BRAF immunoprecipitated from pretreated G-361 cells; type: biochemical; conditions: G-361 cells treated 48 hours; 200 μM or 400 μM I3C, 10 μM Vemurafenib
T1 construct: BRAF-V600E was immunoprecipitated from untreated G-361 cells and incubated in vitro; endogenous in cells; host or cells: G-361 human melanoma cells (ATCC)
Description: BRAF was pulled down from the cell lysates using anti-BRAF antibodies bound to protein G-coupled Sepharose beads, while IgG was used as a negative control. Post-immunoprecipitation supernatants were probed with anti BRAF antibody by western blots to determine pull-down efficiency. […] The reactions were terminated by adding 4× sodium dodecyl sulfate (SDS) sample buffer and boiling the mixture at 100° C. for 5 min. The samples were then electrophoresed, immunoblotted and probed for relative protein levels of phosphorylated MEK and total MEK to assess the kinase activity of the immunoprecipitated BRAF.

SK-MEL-2 cells = experiment: Flow cytometry analysis of DNA content, SK-MEL-2; type: cell-based, human; conditions: all tested concentrations of I3C
Description: as §2, with “I3C” left out

G361 cells = experiment: Flow cytometry analysis of DNA content, G361; type: cell-based, human; conditions: maximal dose of 200 μM I3C
Description: as §2, with “I3C” left out

T1 sequence (P15056 whole entry V600E): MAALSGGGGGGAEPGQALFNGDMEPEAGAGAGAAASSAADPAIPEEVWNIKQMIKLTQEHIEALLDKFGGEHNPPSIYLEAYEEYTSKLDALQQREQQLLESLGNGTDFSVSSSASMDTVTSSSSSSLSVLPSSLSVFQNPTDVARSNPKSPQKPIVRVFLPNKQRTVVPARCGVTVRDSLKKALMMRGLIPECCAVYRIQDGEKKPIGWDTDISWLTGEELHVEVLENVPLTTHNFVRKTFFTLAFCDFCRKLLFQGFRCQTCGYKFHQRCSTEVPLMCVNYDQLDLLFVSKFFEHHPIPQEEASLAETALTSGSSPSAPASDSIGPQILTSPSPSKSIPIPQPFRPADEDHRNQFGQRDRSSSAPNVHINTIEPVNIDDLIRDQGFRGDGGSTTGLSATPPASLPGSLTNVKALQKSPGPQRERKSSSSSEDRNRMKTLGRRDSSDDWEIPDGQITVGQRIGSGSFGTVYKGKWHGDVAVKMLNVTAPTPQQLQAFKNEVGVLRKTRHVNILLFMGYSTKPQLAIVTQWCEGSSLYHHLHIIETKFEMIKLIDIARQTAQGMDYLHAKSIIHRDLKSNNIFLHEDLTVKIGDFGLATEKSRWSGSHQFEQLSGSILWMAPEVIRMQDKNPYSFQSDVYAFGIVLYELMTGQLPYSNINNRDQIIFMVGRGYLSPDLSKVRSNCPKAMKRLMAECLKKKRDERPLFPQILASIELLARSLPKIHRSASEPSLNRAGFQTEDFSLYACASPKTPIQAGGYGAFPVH

| Compound | β-catenin protein levels (β-catenin) | G1 cell cycle arrest (normal melanocytes) | levels of key cell cycle regulators (CDK 2, 4, 6) | time to significant G1 cell cycle arrest ([1]; 20 μM 1-benzyl I3C, all the cell lines) [h] | G1 cell cycle arrest ([1]; varying doses of 1-benzyl I3C, 48 hours) | CDK4 protein levels (CDK4) | phosphorylated Erk/MAPK levels (phosphorylated Erk/MAPK; G-361 and DM738 cells, 72 hour time course) | phosphorylated Erk/MAPK levels (phosphorylated Erk/MAPK; G-361 cells, 48 hours, 10 μM Vemurafenib or 10 μM U0126) | phosphorylated Erk/MAPK levels (phosphorylated Erk/MAPK; SK-MEL-2 cells, 72 hour time course) | BRAF-V600E enzymatic activity (phosphorylated MEK) after cellular treatment (BRAF-V600E) | G1 cell cycle arrest (SK-MEL-2 cells) | G1 cell cycle arrest (G361 cells) |
| --- | --- | --- | --- | --- | --- | --- | --- | --- | --- | --- | --- | --- |
| OCc1cn(Cc2ccccc2)c2ccccc12 [1-benzyl I3C, 1-benzyl indole-3-carbinol] | significantly downregulated | no comparable effect on normal melanocytes | downregulation of key cell cycle regulators like CDK 2, 4, 6 | ≤ 24 | significant G1 cell cycle arrest | – | – | – | – | – | – | – |
| OCc1c[nH]c2ccccc12 [I3C, indole-3-carbinol] | – | – | – | – | – | down regulated | strongly down regulated | down regulated | no effect | significantly inhibited BRAF-V600E enzymatic activity | remained in a rapidly proliferating state | significant G1 cell cycle arrest |
